Data as given in PubChem BioAssay (NCI).
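Each compound was tested at five concentrations against cells in 96-well plates for 48 hours. At the GI50, growth is halved. The concentration for full growth arrest is given as TGI.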

Assays:
Assay in all cases: DTP human tumour cell line panel, 48 h
HL-60(TB) leukemia = tested on: HL-60(TB) leukemia
SW-620 colon = tested on: SW-620 colon
SK-OV-3 ovarian = tested on: SK-OV-3 ovarian
M14 melanoma = tested on: M14 melanoma
UACC-62 melanoma = tested on: UACC-62 melanoma
A498 renal = tested on: A498 renal
UACC-257 melanoma = tested on: UACC-257 melanoma
SNB-19 CNS = tested on: SNB-19 CNS
HT29 colon = tested on: HT29 colon
OVCAR-8 ovarian = tested on: OVCAR-8 ovarian
MDA-MB-231 breast = tested on: MDA-MB-231 breast
SK-MEL-5 melanoma = tested on: SK-MEL-5 melanoma
SR leukemia = tested on: SR leukemia
OVCAR-5 ovarian = tested on: OVCAR-5 ovarian
SK-MEL-2 melanoma = tested on: SK-MEL-2 melanoma
A549 NSCLC = tested on: A549 NSCLC
HCC-2998 colon = tested on: HCC-2998 colon
LOX IMVI melanoma = tested on: LOX IMVI melanoma
HCT-116 colon = tested on: HCT-116 colon
MOLT-4 leukemia = tested on: MOLT-4 leukemia
HOP-62 NSCLC = tested on: HOP-62 NSCLC
BT-549 breast = tested on: BT-549 breast
NCI-H460 lung = tested on: NCI-H460 lung
RXF 393 renal = tested on: RXF 393 renal
COLO 205 colon = tested on: COLO 205 colon
T-47D breast = tested on: T-47D breast
KM12 colon = tested on: KM12 colon
SNB-75 CNS = tested on: SNB-75 CNS
ACHN renal = tested on: ACHN renal
HCT-15 colon = tested on: HCT-15 colon
786-0 renal = tested on: 786-0 renal
MCF7 breast = tested on: MCF7 breast
MALME-3M melanoma = tested on: MALME-3M melanoma
SK-MEL-28 melanoma = tested on: SK-MEL-28 melanoma
RPMI-8226 leukemia = tested on: RPMI-8226 leukemia
TK-10 renal = tested on: TK-10 renal
NCI-H226 lung = tested on: NCI-H226 lung
SN12C renal = tested on: SN12C renal
MDA-MB-435 = tested on: MDA-MB-435
NCI-H522 lung = tested on: NCI-H522 lung
CAKI-1 renal = tested on: CAKI-1 renal
UO-31 renal = tested on: UO-31 renal
K-562 leukemia = tested on: K-562 leukemia
NCI-H23 lung = tested on: NCI-H23 lung
OVCAR-3 ovarian = tested on: OVCAR-3 ovarian
OVCAR-4 ovarian = tested on: OVCAR-4 ovarian
PC-3 prostate = tested on: PC-3 prostate
HS 578T breast = tested on: HS 578T breast
SF-268 CNS = tested on: SF-268 CNS
U251 CNS = tested on: U251 CNS
NCI/ADR-RES ovarian = tested on: NCI/ADR-RES ovarian
SF-539 CNS = tested on: SF-539 CNS
DU-145 prostate = tested on: DU-145 prostate
HOP-92 NSCLC = tested on: HOP-92 NSCLC
EKVX NSCLC = tested on: EKVX NSCLC
SF-295 CNS = tested on: SF-295 CNS
CCRF-CEM leukemia = tested on: CCRF-CEM leukemia
IGROV1 ovarian = tested on: IGROV1 ovarian

C=CC(COC(c1ccccc1)(c1ccccc1)c1ccccc1)N(CC)CC (stereo unspecified)
GI50 (HL-60(TB) leukemia): 3.68 µM
TGI (HL-60(TB) leukemia): 16.2 µM
GI50 (SW-620 colon): 2.32 µM
TGI (SW-620 colon): 7.95 µM
GI50 (SK-OV-3 ovarian): 8.12 µM
TGI (SK-OV-3 ovarian): 21.4 µM
GI50 (M14 melanoma): 2.53 µM
TGI (M14 melanoma): 6.19 µM
GI50 (UACC-62 melanoma): 3.61 µM
TGI (UACC-62 melanoma): 12.5 µM
GI50 (A498 renal): 8.25 µM
TGI (A498 renal): 23.5 µM
GI50 (UACC-257 melanoma): 2.27 µM
TGI (UACC-257 melanoma): 6.32 µM
GI50 (SNB-19 CNS): 10.1 µM
TGI (SNB-19 CNS): 25.3 µM
GI50 (HT29 colon): 1.93 µM
TGI (HT29 colon): 7.05 µM
GI50 (OVCAR-8 ovarian): 5.87 µM
TGI (OVCAR-8 ovarian): 20.1 µM
GI50 (MDA-MB-231 breast): 3.35 µM
TGI (MDA-MB-231 breast): 13.5 µM
GI50 (SK-MEL-5 melanoma): 1.95 µM
TGI (SK-MEL-5 melanoma): 3.98 µM
GI50 (SR leukemia): 2.13 µM
TGI (SR leukemia): 5.29 µM
GI50 (OVCAR-5 ovarian): 6.66 µM
TGI (OVCAR-5 ovarian): 22.1 µM
GI50 (SK-MEL-2 melanoma): 4.68 µM
TGI (SK-MEL-2 melanoma): 13.9 µM
GI50 (A549 NSCLC): 5.16 µM
TGI (A549 NSCLC): 18.4 µM
GI50 (HCC-2998 colon): 4.28 µM
TGI (HCC-2998 colon): 16.4 µM
GI50 (LOX IMVI melanoma): 4.73 µM
TGI (LOX IMVI melanoma): 18.8 µM
GI50 (HCT-116 colon): 3.43 µM
TGI (HCT-116 colon): 14.3 µM
GI50 (MOLT-4 leukemia): 3.02 µM
TGI (MOLT-4 leukemia): 11.6 µM
GI50 (HOP-62 NSCLC): 3.93 µM
TGI (HOP-62 NSCLC): 15.6 µM
GI50 (BT-549 breast): 14.7 µM
TGI (BT-549 breast): 30.3 µM
GI50 (NCI-H460 lung): 2.5 µM
TGI (NCI-H460 lung): 6.58 µM
GI50 (RXF 393 renal): 2.92 µM
TGI (RXF 393 renal): 8.21 µM
GI50 (COLO 205 colon): 1.7 µM
TGI (COLO 205 colon): 3.4 µM
GI50 (T-47D breast): 4.6 µM
TGI (T-47D breast): 19.8 µM
GI50 (KM12 colon): 4.33 µM
TGI (KM12 colon): 14.8 µM
GI50 (SNB-75 CNS): 10.3 µM
TGI (SNB-75 CNS): 22.5 µM
GI50 (ACHN renal): 8.1 µM
TGI (ACHN renal): 23.9 µM
GI50 (HCT-15 colon): 2.6 µM
TGI (HCT-15 colon): 13.9 µM
GI50 (786-0 renal): 11.4 µM
TGI (786-0 renal): 27.7 µM
GI50 (MCF7 breast): 2.8 µM
TGI (MCF7 breast): 7.21 µM
GI50 (MALME-3M melanoma): 1.89 µM
TGI (MALME-3M melanoma): 4.3 µM
GI50 (SK-MEL-28 melanoma): 3.59 µM
TGI (SK-MEL-28 melanoma): 11.8 µM
GI50 (RPMI-8226 leukemia): 2.99 µM
TGI (RPMI-8226 leukemia): 7.8 µM
GI50 (TK-10 renal): 3.19 µM
TGI (TK-10 renal): 10.8 µM
GI50 (NCI-H226 lung): 11.9 µM
TGI (NCI-H226 lung): 30.9 µM
GI50 (SN12C renal): 7.97 µM
TGI (SN12C renal): 24.5 µM
GI50 (MDA-MB-435): 4.04 µM
TGI (MDA-MB-435): 16.3 µM
GI50 (NCI-H522 lung): 4.18 µM
TGI (NCI-H522 lung): 15.2 µM
GI50 (CAKI-1 renal): 2.43 µM
TGI (CAKI-1 renal): 11.8 µM
GI50 (UO-31 renal): 3.54 µM
TGI (UO-31 renal): 16.4 µM
GI50 (K-562 leukemia): 2.07 µM
TGI (K-562 leukemia): 5.86 µM
GI50 (NCI-H23 lung): 6.07 µM
TGI (NCI-H23 lung): 19.9 µM
GI50 (OVCAR-3 ovarian): 7.04 µM
TGI (OVCAR-3 ovarian): 20.3 µM
GI50 (OVCAR-4 ovarian): 4.74 µM
TGI (OVCAR-4 ovarian): 17.5 µM
GI50 (PC-3 prostate): 4.02 µM
TGI (PC-3 prostate): 15.6 µM
GI50 (HS 578T breast): 2.21 µM
TGI (HS 578T breast): 9.86 µM
GI50 (SF-268 CNS): 11 µM
TGI (SF-268 CNS): 24.9 µM
GI50 (U251 CNS): 2.98 µM
TGI (U251 CNS): 12 µM
GI50 (NCI/ADR-RES ovarian): 3.88 µM
TGI (NCI/ADR-RES ovarian): 18.2 µM
GI50 (SF-539 CNS): 4.88 µM
TGI (SF-539 CNS): 18.6 µM
GI50 (DU-145 prostate): 6.54 µM
TGI (DU-145 prostate): 20.2 µM
GI50 (HOP-92 NSCLC): 4.5 µM
TGI (HOP-92 NSCLC): 18 µM
GI50 (EKVX NSCLC): 4.48 µM
TGI (EKVX NSCLC): 19.2 µM
GI50 (SF-295 CNS): 1.74 µM
TGI (SF-295 CNS): 3.78 µM
GI50 (CCRF-CEM leukemia): 3.76 µM
TGI (CCRF-CEM leukemia): 14.8 µM
GI50 (IGROV1 ovarian): 5.09 µM
TGI (IGROV1 ovarian): 20.1 µM
